Experimental data from PMC12081870 (Communications Biology, 2025).
Values joined by “and” are separate entries in the source; they are usually repeats but may differ in a detail not shown here. Identical values can stand only once.

Experiments:
Sla1 third SH3 domain = target: Sla1 third SH3 domain; design: method as in PMID 17244534; conditions: third SH3 domain of Sla1; ref [10]; read-out: binding to ubiquitin affinity; cited from earlier work
las17 P387A yeast strain = assay: Growth of yeast, temperature sensitivity; assay type: cell-based, Saccharomyces cerevisiae; conditions: range of temperatures, sole Las17 in cells
Method: (§1) Supplementary Information.
(§2) Methods used in Supplementary Data
(§3) Yeast strains, growth and staining
(§4) Yeast plasmids used in this study are listed in Supplementary table 1 and yeast strains used in Supplementary table 2. Unless stated otherwise, cells were grown with rotary shaking at 30°C in liquid YPD medium (1% yeast extract, 2% Bacto-peptone, 2% glucose supplemented with 40 μg/ml adenine) or in synthetic medium (0.67% yeast nitrogen base, 2% glucose) with appropriate supplements. Growth assays used solid medium with 2% agar added to above. All strains carrying fluorescent tags have growth properties similar to isogenic control strains with the exception of strains carrying dual reporters where lifetimes were longer for both wild type and mutant strains (in Figure 9D). Point mutations in LAS17 were generated using site directed mutagenesis (Agilent). DNA cassettes carrying mutations for integration were transformed into KAY1801. Mutant colonies were counter-selected on minimal medium, containing 0.005% uracil and 0.1% 5’-Fluoroorotic Acid (5-FOA; Melford labs). […]
(§5) expressing strains on plates on which a disc carrying 10 µl of latrunculin-A of varying concentrations was placed (white disc). […] They were then scored according to the extent of uptake and categorised according to the key shown. >100 cells were visualised for each strain in each of 3 independent experiments. […]

[1] = system: Las17-GFP and Arc15-mCherry; assay: Dual-reporter lifetimes, Las17-GFP and Arc15-mCherry co-localisation; assay type: cell-based, Saccharomyces cerevisiae; design: lifetime, GFP alone / lifetime, GFP and RFP / lifetime, RFP: unit not given here
Method: A size bar for each set of kymographs is shown on the upper right of each set. For (A) and (C) size bar is 100 nm and for B is 200 nm. Error bars are standard deviation. […] The site of interest is labelled in the first two time panels with a white arrow. Exposure 0.5 sec with 1 second time lapse. 120 s recorded. […] Error bars are standard deviation.
Individual spots were analysed for lifetimes and behaviours.
Yeast strains used in this study are listed in Supplementary table 2 and plasmids used in Supplementary table 1. Unless stated otherwise, cells were grown with rotary shaking at 30 °C in liquid YPD medium (1% yeast extract, 2% Bacto-peptone, 2% glucose supplemented with 40 μg/ml adenine) or in synthetic medium (0.67% yeast nitrogen base, 2% glucose) with appropriate supplements. […] DNA cassettes carrying mutations for integration were transformed into KAY1801. Mutant colonies were counter-selected on minimal medium, containing 0.005% uracil and 0.1% 5’-Fluoroorotic Acid (5-FOA; Melford laboratories). Allele exchange, in growing Ura3^-, 5-FOA resistant colonies, was confirmed by PCR and sequencing.
For live-cell imaging, cells expressing tagged proteins were visualised after growing to early log phase. Analysis was carried out at room temperature (22 °C). […] Images were taken simultaneously on separate scientific complementary metal oxide semiconductor (sCMOS) cameras (30 msec exposure). Seven 250 nm sections were acquired every 0.5 sec (241 time points). The stacks were then deconvolved and processed, using SoftWorx. Protein localisation and lifetime was analysed from those projections. Fiji software was used to assemble movies and kymographs, to track and record behaviour of individual spots. Graphs show mean ± SD. […] Where appropriate data was tested for normal distribution using Graphpad Prism software, and then subjected to the appropriate test as described in the methods for each experiment type.

[2] = system: F-actin organisation in yeast cells; assay: Rhodamine-phalloidin staining, actin organisation in cells; assay type: cell-based, Saccharomyces cerevisiae; conditions: vs wild type cells
Method: as §1, §2, §3, §4, §5

yeast cells = assay: Lucifer yellow bulk phase endocytosis; assay type: cell-based, Saccharomyces cerevisiae; conditions: 90 minutes at 30°C, vs wild type
Method: as §1, §2, §3, §4, §5

[3] = system: Arc15-mCherry (Arp2/3 complex); assay: Lifetime of Arc15-mCherry patches at endocytic sites; assay type: cell-based, Saccharomyces cerevisiae; conditions: las17 P387A background vs wild type; wt n = 156, P387A n = 132
Method: (§6) For live-cell imaging, cells expressing tagged proteins were visualised after growing to early log phase. Analysis was carried out at room temperature (22 °C). Time-lapse of wild-type and mutated Las17-GFP was acquired using OMX DeltaVision V4 and a 60×/1.42 NA objective. Images were taken simultaneously on separate scientific complementary metal oxide semiconductor (sCMOS) cameras (30 msec exposure). Seven 250 nm sections were acquired every 0.5 sec (241 time points). The stacks were then deconvolved and processed, using SoftWorx. Protein localisation and lifetime was analysed from those projections. Fiji software was used to assemble movies and kymographs, to track and record behaviour of individual spots. Graphs show mean ± SD. Sample size Fig. 9A wt n = 67, P387A n = 52; 9B wt n = 183, P387A n = 96; 9 C wt n = 156, P387A n = 132. Where appropriate data was tested for normal distribution using Graphpad Prism software, and then subjected to the appropriate test as described in the methods for each experiment type.
(§7) Lifetime and behaviour of cell reporter proteins using fluorescence microscopy: Graphs show mean ± SD. Sample size Fig. 9A wt n = 67, P387A n = 52; 9B wt n = 183, P387A n = 96; 9 C wt n = 156, P387A n = 132. Unpaired Mann Whitney statistical analysis of patch lifetimes was carried out using Graphpad Prism software, **** denotes two tailed P value of <0.0001.

Abp1 = assay: Lifetime of Abp1-GFP patches at endocytic sites; assay type: cell-based, Saccharomyces cerevisiae; conditions: las17 P387A background vs wild type; wt n = 183, P387A n = 96
Method: as §6, §7

[4] = system: Las17 and las17 P387A expressing yeast strains; assay: Latrunculin-A halo assay on yeast; assay type: cell-based, Saccharomyces cerevisiae; conditions: sole Las17 in cells, words
Method: as §1, §2, §3, §4, §5

[5] = Las17-GFP / Arc15-mCherry dual-label strain
[6] = sheet Fig9E, individual endocytic patches, one per cell

ubiquitin
Kd (Sla1 third SH3 domain): 39 µM

las17 P387A: full-length Las17 with P387A, integrated in yeast in place of wild type LAS17
growth (las17 P387A yeast strain): able to support growth across a range of temperatures | duration of co-localization of Las17-GFP and Arc15-mCherry [1, 5]: 28 s | time of Arc15-mCherry alone after Las17 disassembly [1, 5]: 15 s | time of Las17 at the site before Arc15 is recruited [1, 5]: about 40 s | lifetime, GFP alone [1, 6]: 30 and 22 and 44 and 66 | lifetime, GFP and RFP [1, 6]: 46 and 78 and 88 | lifetime, RFP [1, 6]: 62 and 92 and 108 | actin organisation in cells [2]: less well polarised | bulk phase endocytosis (yeast cells): slower than in wild type cells | lifetime of Arc15 patches [3]: increased lifetime | lifetime of Abp1 patches (Abp1): increased lifetime | sensitivity to latrunculin-A [4]: increase in sensitivity to latrunculin-A
